Reference: US8574563B2 (Bristol-Myers Squibb Company, priority 2006, dated 2013)

System: HCV 1b-377-neo replicon cells
Assay: HCV replicon assay, HCV 1b-377-neo replicon cells (1b FRET)
Assay type: cell-based, Hepatitis C virus genotype 1b
Conditions: Hepatitis C virus, HCV 1b-377-neo replicon cells; HCV 1b genotype; read-out: EC50 range against HCV 1b (Table 2, Range)
Summary of the method: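 FRET-based replicon assay in HCV 1b-377-neo cells, including a comparison line carrying the NS5A Y2065H mutation that confers resistance to a reference compound.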

SMILES	EC50
CC(=O)N[C@H](C(=O)N1[C@@H]2C[C@@H]2C[C@H]1c1ncc(-c2ccc(-c3ccc(-c4cnc([C@@H]5C[C@H]6C[C@H]6N5C(=O)[C@@H](NC(C)=O)C(C)C)[nH]4)cc3)cc2)[nH]1)C(C)C [Example M140, N-((1S)-1-(((1R,3S,5R)-3-(4-(4′-(2-((1R,3S,5R)-2-((2S)-2-acetamido-3-methylbutanoyl)-2-azabicyclo[3.1.0]hex-3-yl)-1H-imidazol-4-yl)-4-biphenylyl)-1H-imidazol-2-yl)-2-azabicyclo[3.1.0]hex-2-yl)carbonyl)-2-methylpropyl)acetamide]	0.001 to 0.999 nM
CC(C)[C@H](N)C(=O)N1[C@@H]2C[C@@H]2C[C@H]1c1nc(-c2ccc(-c3ccc(-c4cnc([C@@H]5C[C@H]6C[C@H]6N5C(=O)[C@@H](N)C(C)C)[nH]4)cc3)cc2)c[nH]1 [Example M140a-i, (2S)-1-((1R,3S,5R)-3-(4-(4′-(2-((1R,3S,5R)-2-((2S)-2-amino-3-methylbutanoyl)-2-azabicyclo[3.1.0]hex-3-yl)-1H-imidazol-5-yl)-4-biphenylyl)-1H-imidazol-2-yl)-2-azabicyclo[3.1.0]hex-2-yl)-3-methyl-1-oxo-2-butanamine]	1 to 99 nM
CC(C)[C@H](NC(=O)OC(C)(C)C)C(=O)N1[C@@H]2C[C@@H]2C[C@H]1c1nc(-c2ccc(-c3ccc(-c4c[nH]c([C@@H]5C[C@H]6C[C@H]6N5C(=O)[C@@H](NC(=O)OC(C)(C)C)C(C)C)n4)cc3)cc2)c[nH]1 [Example M140a-ii, tert-butyl ((1S)-1-(((1R,3S,5R)-3-(4-(4′-(2-((1R,3S,5R)-2-((2S)-2-((tert-butoxycarbonyl)amino)-3-methylbutanoyl)-2-azabicyclo[3.1.0]hex-3-yl)-1H-imidazol-4-yl)-4-biphenylyl)-1H-imidazol-2-yl)-2-azabicyclo[3.1.0]hex-2-yl)carbonyl)-2-methylpropyl)carbamate]	1 to 99 nM
CC(C)[C@H](NC(=O)C1CC1)C(=O)N1[C@@H]2C[C@@H]2C[C@H]1c1ncc(-c2ccc(-c3ccc(-c4cnc([C@@H]5C[C@H]6C[C@H]6N5C(=O)[C@@H](NC(=O)C5CC5)C(C)C)[nH]4)cc3)cc2)[nH]1 [Example M141, N-((1S)-1-(((1R,3S,5R)-3-(4-(4′-(2-((1R,3S,5R)-2-((2S)-2-((cyclopropylcarbonyl)amino)-3-methylbutanoyl)-2-azabicyclo[3.1.0]hex-3-yl)-1H-imidazol-4-yl)-4-biphenylyl)-1H-imidazol-2-yl)-2-azabicyclo[3.1.0]hex-2-yl)carbonyl)-2-methylpropyl)cyclopropanecarbamate]	1 to 99 nM
CC(C)[C@@H](NC(=O)OC(C)(C)C)C(=O)N1[C@@H]2C[C@@H]2C[C@H]1c1nc(-c2ccc(-c3ccc(-c4c[nH]c([C@@H]5C[C@H]6C[C@H]6N5C(=O)[C@H](NC(=O)OC(C)(C)C)C(C)C)n4)cc3)cc2)c[nH]1 [Example M142, tert-butyl ((1R)-1-(((1R,3S,5R)-3-(4-(4′-(2-((1R,3S,5R)-2-((2R)-2-((tert-butoxycarbonyl)amino)-3-methylbutanoyl)-2-azabicyclo[3.1.0]hex-3-yl)-1H-imidazol-4-yl)-4-biphenylyl)-1H-imidazol-2-yl)-2-azabicyclo[3.1.0]hex-2-yl)carbonyl)-2-methylpropyl)carbamate]	1 to 99 nM
CC(=O)N[C@@H](C(=O)N1[C@@H]2C[C@@H]2C[C@H]1c1nc(-c2ccc(-c3ccc(-c4c[nH]c([C@@H]5C[C@H]6C[C@H]6N5C(=O)[C@H](NC(C)=O)C(C)C)n4)cc3)cc2)c[nH]1)C(C)C [Example M143, N-((1R)-1-(((1R,3S,5R)-3-(4-(4′-(2-((1R,3S,5R)-2-((2R)-2-acetamido-3-methylbutanoyl)-2-azabicyclo[3.1.0]hex-3-yl)-1H-imidazol-4-yl)-4-biphenylyl)-1H-imidazol-2-yl)-2-azabicyclo[3.1.0]hex-2-yl)carbonyl)-2-methylpropyl)acetamide]	1 to 99 nM
CC(C)[C@H](Nc1ncccn1)C(=O)N1[C@@H]2C[C@@H]2C[C@H]1c1ncc(-c2ccc(-c3ccc(-c4cnc([C@@H]5C[C@H]6C[C@H]6N5C(=O)[C@@H](Nc5ncccn5)C(C)C)[nH]4)cc3)cc2)[nH]1 [Example M144, N,N′-(4,4′-biphenyldiylbis(1H-imidazole-4,2-diyl(1R,3S,5R)-2-azabicyclo[3.1.0]hexane-3,2-diyl((2S)-3-methyl-1-oxo-1,2-butanediyl)))di(2-pyrimidinamine)]	0.001 to 0.999 nM
COC(=O)N[C@H](C(=O)N1CC2(CC2)C[C@H]1c1ncc(-c2ccc(-c3ccc(-c4cnc([C@@H]5CC6(CC6)CN5C(=O)[C@@H](NC(=O)OC)C(C)C)[nH]4)cc3)cc2)[nH]1)C(C)C [Example M145]	0.001 to 0.999 nM
COC(=O)NCC(=O)N1CC2(CC2)C[C@H]1c1nc(-c2ccc(-c3ccc(-c4c[nH]c([C@@H]5CC6(CC6)CN5C(=O)CNC(=O)OC)n4)cc3)cc2)c[nH]1 [Example M146, methyl (2-((6S)-6-(4-(4′-(2-((6S)-5-(((methoxycarbonyl)amino)acetyl)-5-azaspiro[2.4]hept-6-yl)-1H-imidazol-4-yl)-4-biphenylyl)-1H-imidazol-2-yl)-5-azaspiro[2.4]hept-5-yl)-2-oxoethyl)carbamate]	0.001 to 0.999 nM
COC(=O)N[C@@H](C)C(=O)N1CC2(CC2)C[C@H]1c1nc(-c2ccc(-c3ccc(-c4c[nH]c([C@@H]5CC6(CC6)CN5C(=O)[C@H](C)NC(=O)OC)n4)cc3)cc2)c[nH]1 [Example M147, methyl ((1S)-2-((6S)-6-(4-(4′-(2-((6S)-5-(N-(methoxycarbonyl)-L-alanyl)-5-azaspiro[2.4]hept-6-yl)-1H-imidazol-4-yl)-4-biphenylyl)-1H-imidazol-2-yl)-5-azaspiro[2.4]hept-5-yl)-1-methyl-2-oxoethyl)carbamate]	0.001 to 0.999 nM
CC[C@H](NC(=O)OC)C(=O)N1CC2(CC2)C[C@H]1c1nc(-c2ccc(-c3ccc(-c4c[nH]c([C@@H]5CC6(CC6)CN5C(=O)[C@H](CC)NC(=O)OC)n4)cc3)cc2)c[nH]1 [Example M148, dimethyl (4,4′-biphenyldiylbis(1H-imidazole-4,2-diyl(6S)-5-azaspiro[2.4]heptane-6,5-diyl((2S)-1-oxo-1,2-butanediyl)))biscarbamate]	0.001 to 0.999 nM
COC(=O)N[C@@H](C(=O)N1CC2(CC2)C[C@H]1c1nc(-c2ccc(-c3ccc(-c4c[nH]c([C@@H]5CC6(CC6)CN5C(=O)[C@H](NC(=O)OC)C(C)C)n4)cc3)cc2)c[nH]1)C(C)C [Example M149, methyl ((1R)-1-(((6S)-6-(4-(4′-(2-((6S)-5-((2R)-2-((methoxycarbonyl)amino)-3-methylbutanoyl)-5-azaspiro[2.4]hept-6-yl)-1H-imidazol-4-yl)-4-biphenylyl)-1H-imidazol-2-yl)-5-azaspiro[2.4]hept-5-yl)carbonyl)-2-methylpropyl)carbamate]	1 to 99 nM
COC(=O)N[C@@H](C(=O)N1CC2(CC2)C[C@H]1c1nc(-c2ccc(-c3ccc(-c4c[nH]c([C@@H]5CC6(CC6)CN5C(=O)[C@H](NC(=O)OC)c5ccccc5)n4)cc3)cc2)c[nH]1)c1ccccc1 [Example M150, dimethyl (4,4′-biphenyldiylbis(1H-imidazole-4,2-diyl(6S)-5-azaspiro[2.4]heptane-6,5-diyl((1R)-2-oxo-1-phenyl-2,1-ethanediyl)))biscarbamate]	0.001 to 0.999 nM
